Test results from article PMC8822754, “Chloride intracellular channel 1 activity is not required for glioblastoma development but its inhibition dictates glioma stem cell responsivity to novel biguanide derivatives” (Journal of Experimental & Clinical Cancer Research : CR, 2022).

Biological target: Chloride intracellular channel-1 (CLIC1) (Homo sapiens, UniProt O00299)
Test: microscale thermophoresis (also CLIC1 current block by patch clamp in GBM3 GSCs)
Format: binding
Parameters: recombinant CLIC1, NHS dye-labelled

Row | Kd [µM] | SMILES
1 | 15.6 ± 1.9 | COc1ccc(/N=C(\N)N=C(N)N)cc1 [Q48]
2 | 1900 ± 500 | COc1ccc(N2C(N)=NC(N)=NC2(C)C)cc1 [Q54]
